Laboratory results: ChEMBL document CHEMBL1125499, “Enantiomeric N-substituted N-normetazocines: a comparative study of affinities at sigma, PCP, and mu opioid receptors” (J Med Chem, 1992)

What was measured:
Mu-type opioid receptor = Mu-type opioid receptor (Rattus norvegicus, UniProt P33535); assay: Binding affinity against opioid receptor mu using [3H]-DAMGO as radioligand.
[1] = Ratio of binding affinities of pcp receptor(ki(nM)) to sigma opioid receptor(ki(nM))
[2] = Binding affinity against sigma opioid receptor using [3H]pentazocine as radioligand.
[3] = Binding affinity against PCP receptor using [3H]TCP as radioligand.
[4] = Binding affinity against sigma opioid receptor using [3H](+)-3-PPP as radioligand.

Chain of Mu-type opioid receptor (P33535 whole entry): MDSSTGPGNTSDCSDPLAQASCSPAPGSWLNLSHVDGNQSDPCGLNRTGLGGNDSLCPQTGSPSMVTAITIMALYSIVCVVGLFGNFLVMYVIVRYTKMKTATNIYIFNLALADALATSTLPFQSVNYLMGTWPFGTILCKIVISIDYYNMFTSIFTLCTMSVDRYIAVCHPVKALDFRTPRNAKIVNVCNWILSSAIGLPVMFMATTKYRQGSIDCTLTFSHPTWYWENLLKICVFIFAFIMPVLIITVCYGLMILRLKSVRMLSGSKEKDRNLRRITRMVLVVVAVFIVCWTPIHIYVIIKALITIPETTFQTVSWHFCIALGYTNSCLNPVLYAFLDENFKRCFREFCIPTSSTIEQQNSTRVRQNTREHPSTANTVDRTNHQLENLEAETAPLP

Row | Structure (SMILES) | Ki (Mu-type opioid receptor) [nM] | Ratio [1] | Ki [2] [nM] | Ki [3] [nM] | Ki [4] [nM]
1 | CC(C)CCN1CC[C@]2(C)c3cc(O)ccc3C[C@@H]1[C@@H]2C | 4.9 | 313 | 8.74 | 2740 | –
2 | C[C@@H]1[C@@H]2Cc3ccc(O)cc3[C@]1(C)CCN2CCCCc1ccccc1 | 270 | 3100 | 3.23 | > 10000 | –
3 | C/C=C\CN1CC[C@@]2(C)c3cc(O)ccc3C[C@H]1[C@H]2C | 1690 | – | – | 381 | –
4 | C[C@@H]1[C@@H]2Cc3ccc(O)cc3[C@]1(C)CCN2C/C=C/Cl | 1980 | 24 | 10.5 | 250 | –
5 | C[C@@H]1[C@@H]2Cc3ccc(O)cc3[C@]1(C)CCN2CCCc1ccccc1 | 343 | 8440 | 1.15 | 9700 | –
6 | C=CCN1CC[C@@]2(C)c3cc(O)ccc3C[C@H]1[C@H]2C | > 10000 | – | – | 225 | –
7 | C[C@@H]1[C@@H]2Cc3ccc(O)cc3[C@]1(C)CCN2CCCCCc1ccccc1 | 260 | > 3790 | 2.64 | > 10000 | –
8 | CC#CCN1CC[C@]2(C)c3cc(O)ccc3C[C@@H]1[C@@H]2C | 5.1 | – | – | 360 | –
9 | C[C@@H]1[C@@H]2Cc3ccc(O)cc3[C@]1(C)CCN2 | 470 | – | – | 30 | –
10 | CC(C)=CCN1CC[C@@]2(C)c3cc(O)ccc3C[C@@H]1[C@@H]2C | 13 | 10.1 | – | 842 | –
11 | C/C=C\CN1CC[C@]2(C)c3cc(O)ccc3C[C@@H]1[C@@H]2C | 11 | – | – | 1120 | 460
12 | C[C@@H]1[C@@H]2Cc3ccc(O)cc3[C@@]1(C)CN2CC1CC1 | 1240 | 8.9 | 17.2 | 153 | –
13 | C[C@H]1[C@H]2Cc3ccc(O)cc3[C@@]1(C)CCN2Cc1ccccc1 | 97 | – | 36.5 | 6500 | –
14 | C[C@@H]1[C@@H]2Cc3ccc(O)cc3[C@]1(C)CCN2Cc1ccccc1 | 1610 | – | 0.67 | > 10000 | –
15 | C[C@H]1[C@H]2Cc3ccc(O)cc3[C@@]1(C)CCN2C | 11 | – | – | 1190 | –
16 | C/C=C/CN1CC[C@]2(C)c3cc(O)ccc3C[C@@H]1[C@@H]2C | 9 | – | – | 347 | –
17 | C=C[C@@H](C)N1CC[C@@]2(C)c3cc(O)ccc3C[C@H]1[C@H]2C | 690 | – | – | 200 | –

Row | Structure (SMILES) | Ki (Mu-type opioid receptor) [nM] | Ratio [1] | Ki [2] [nM] | Ki [3] [nM] | Ki [4] [nM]
18 | C[C@H]1[C@H]2Cc3ccc(O)cc3[C@]1(C)CCN2CCc1ccccc1 | 0.2 | 30.5 | 61.7 | 1880 | –
19 | C[C@@H]1[C@@H]2Cc3ccc(O)cc3[C@@]1(C)CCN2CCc1ccccc1 | 55 | > 2560 | 3.9 | > 10000 | –
20 | C[C@H]1[C@H]2Cc3ccc(O)cc3[C@@]1(C)CCN2CCCCc1ccccc1 | 4 | 70 | 85.2 | 5960 | –
21 | CC#CCN1CC[C@@]2(C)c3cc(O)ccc3C[C@H]1[C@H]2C | 1000 | – | – | 1230 | 93.7
22 | C[C@H]1[C@H]2Cc3ccc(O)cc3[C@@]1(C)CCN2CCCCCc1ccccc1 | 68 | 260 | 38.5 | > 10000 | –
23 | C[C@@H]1[C@@H]2Cc3ccc(O)cc3[C@]1(C)CCN2C | 4970 | – | – | 41 | –
24 | C=C[C@@H](C)N1CC[C@]2(C)c3cc(O)ccc3C[C@@H]1[C@@H]2C | 5.9 | – | – | 1900 | –
25 | C=C[C@H](C)N1CC[C@]2(C)c3cc(O)ccc3C[C@@H]1[C@@H]2C | 3 | – | – | 2200 | –
26 | C/C=C/CN1CC[C@@]2(C)c3cc(O)ccc3C[C@H]1[C@H]2C | 5620 | – | – | 179 | 52.5
27 | C=CCN1CC[C@]2(C)c3cc(O)ccc3C[C@@H]1[C@@H]2C | 3.6 | – | > 3000 | 504 | –
28 | CC(C)CCN1CC[C@@]2(C)c3cc(O)ccc3C[C@H]1[C@H]2C | 3500 | > 4440 | 2.25 | > 10000 | –
29 | C[C@H]1[C@H]2Cc3ccc(O)cc3[C@@]1(C)CCN2 | 23 | – | 5580 | 197 | –
30 | CC(C)=CCN1CC[C@]2(C)c3cc(O)ccc3C[C@H]1[C@H]2C [(+)-PENTAZOCINE] | – | 1300 | – | 4040 | –
31 | C=C[C@H](C)N1CC[C@@]2(C)c3cc(O)ccc3C[C@H]1[C@H]2C | 2270 | – | – | 90 | 159
32 | C[C@H]1[C@H]2Cc3ccc(O)cc3[C@]1(C)CCN2CC1CC1 [CYCLAZOCINE] | 0.18 | – | – | 107 | –
33 | C[C@H]1[C@H]2Cc3ccc(O)cc3[C@@]1(C)CCN2C/C=C/Cl | 1.5 | 1.2 | 403 | 470 | –
34 | C[C@H]1[C@H]2Cc3ccc(O)cc3[C@@]1(C)CCN2CCCc1ccccc1 | 20 | 93.3 | 38.6 | 3600 | –
